How the values were obtained:
[1] = molecular target: T1, Type I 5α-Reductase from Human Scalp (Homo sapiens, UniProt P18405); assay: Human Type I 5α-reductase assay (conversion of [3H]-testosterone to 5α-reduced metabolites); type: biochemical; conditions: pH 7.5, 0.3 μM; 50 nM [3H]-testosterone, pH 7.5, 25°, 180 min; compared to control reaction mixtures; read-out: percent inhibition of Type I AR
T1 construct: Scalp punch biopsies from graft recipient sites were obtained from human hair transplant procedures; from tissue; host or cells: human scalp punch biopsies (hair transplant graft recipient sites), homogenate, 100,000×g pellet
T1 sequence (P18405 1-259): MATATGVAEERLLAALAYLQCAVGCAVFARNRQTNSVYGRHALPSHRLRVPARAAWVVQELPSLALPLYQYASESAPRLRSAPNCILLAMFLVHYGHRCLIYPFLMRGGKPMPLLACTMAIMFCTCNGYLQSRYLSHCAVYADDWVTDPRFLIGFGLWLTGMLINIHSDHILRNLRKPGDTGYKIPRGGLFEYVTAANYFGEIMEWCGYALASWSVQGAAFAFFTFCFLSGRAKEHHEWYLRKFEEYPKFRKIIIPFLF

[2] = molecular target: T2, Type II 5α-Reductase from Human Prostate (Homo sapiens, UniProt P31213); assay: Human Type II 5α-reductase assay (conversion of [3H]-testosterone to 5α-reduced metabolites); type: biochemical; conditions: sodium acetate pH 5.5, 25°, 30 min, compared to control reaction mixtures; for inhibition at 0.3 µM: pH 5.5, 0.3 μM, read-out: percent inhibition of Type II AR; for percent inhibition of Type II AR: 0.3 μM
T2 construct: The same procedure as above was used for preparations using tissue from prostate surgery; from tissue; host or cells: human prostate tissue from surgery, homogenate, 100,000×g pellet
T2 sequence (P31213 1-254): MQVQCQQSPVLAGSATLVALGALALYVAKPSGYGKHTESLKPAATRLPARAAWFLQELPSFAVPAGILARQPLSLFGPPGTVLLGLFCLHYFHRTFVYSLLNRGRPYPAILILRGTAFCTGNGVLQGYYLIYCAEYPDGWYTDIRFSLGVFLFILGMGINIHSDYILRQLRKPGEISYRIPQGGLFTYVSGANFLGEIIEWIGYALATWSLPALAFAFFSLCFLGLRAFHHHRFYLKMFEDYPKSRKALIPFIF

SMILES | inhibition at 0.3 µM [1] [%] | inhibition at 0.3 µM [2] [%] | percent inhibition of Type II AR [2] [%]
CN1C(=O)CC[C@]2(C)c3ccc(-c4ccc(C(C)(C)C)cc4)cc3CC[C@@H]12 [Example 75, (+)-(4aR)-(10bR)-4-methyl-8-(4-t-butylphenyl)-10b-methyl-1,2,3,4,4a,5,6,10b-octahydrobenzo[f]quinolin-3-one] | 63 | 40 | 
CCCCc1ccc(-c2ccc3c(c2)CC[C@H]2N(C)C(=O)CC[C@]32C)cc1 [Example 76, (+)-(4aR)-(10bR)-4-methyl-8-(4-n-butylphenyl)-10b-methyl-1,2,3,4,4a,5,6,10b-octahydrobenzo[f]quinolin-3-one] | 83 | 46 | 
CN1C(=O)CC[C@]2(C)c3ccc(-c4ccc(Cl)c(Cl)c4)cc3CC[C@@H]12 [Example 77, (+)-(4aR)-(10bR)-4-methyl-8-(3,4-dichlorophenyl)-10b-methyl-1,2,3,4,4a,5,6,10b-octahydrobenzo[f]quinolin-3-one] | 88 | 46 | 33
COc1ccc2cc(-c3ccc4c(c3)CC[C@H]3N(C)C(=O)CC[C@]43C)ccc2c1 [Example 81, (+)-(4aR)-(10bR)-4-methyl-8-(2-[6-methoxy]naphthyl)-10b-methyl-1,2,3,4,4a,5,6,10b-octahydrobenzo[f]quinolin-3-one] | 92 | 25 | 
CN1C(=O)CC[C@]2(C)c3ccc(-c4cc5ccccc5s4)cc3CC[C@@H]12 [Example 82, (+)-(4aR)-(10bR)-4-methyl-8-(2-benzothienyl)-10b-methyl-1,2,3,4,4a,5,6,10b-octahydrobenzo-[f]quinolin-3-one] | 85 | 31 | 
CN1C(=O)CC[C@]2(C)c3ccc(-c4ccc(-c5ccccc5)cc4)cc3CC[C@@H]12 [Example 84, (+)-(4aR)-(10bR)-4-methyl-8-(4-biphenyl)-10b-methyl-1,2,3,4,4a,5,6,10b-octahydrobenzo[f]quinolin-3-one] | 88 | 23 | 
CN1C(=O)CC[C@]2(C)c3ccc(-c4cccc([N+](=O)[O-])c4)cc3CC[C@@H]12 [Example 86, (+)-(4aR)-(10bR)-4-methyl-8-(3-nitrophenyl)-10b-methyl-1,2,3,4,4a,5,6,10b-octahydrobenzo[f]quinolin-3-one] | 66 | 51 | 
CN(C)c1cccc2c(S(=O)(=O)Nc3cccc(-c4ccc5c(c4)CC[C@H]4N(C)C(=O)CC[C@]54C)c3)cccc12 [Example 91, (+)-(4aR)-(10bR)-4-methyl-8-[3-([5-dimethylamino-1-naphthyl]sulfonylamino)phenyl]-10b-methyl-1,2,3,4,4a,5,6,10b-octahydrobenzo[f]quinolin-3-one] | 87 | 32 | 
Cc1ccc(Sc2ccc3c(c2)CC[C@H]2N(C)C(=O)CC[C@]32C)cc1 [Example 96, (+)-(4aR)-(10bR)-4,10b-dimethyl-8-(4-methylphenylthio)-1,2,3,4,4a,5,6,10b-octahydrobenzo[f]quinolin-3-one] | 89 | 52 | 
CN1C(=O)CC[C@]2(C)c3ccc(Sc4ccc5ccccc5c4)cc3CC[C@@H]12 [Example 98, (+)-(4aR)-(10bR)-4,10b-dimethyl-8-(2-naphthylthio)-1,2,3,4,-4a,5,6,10b-octahydrobenzo[f]quinolin-3-one] | 76 | 61 | 44
CN1C(=O)CC[C@]2(C)c3ccc(Sc4cccc(Cl)c4)cc3CC[C@@H]12 [Example 100, (+)-(4aR)-(10bR)-4,10b-dimethyl-8-(3-chlorophenylthio)-1,2,3,4,-4a,5,6,10b-octahydrobenzo[f]quinolin-3-one] | 96 | 51 | 34
Cc1ccccc1Sc1ccc2c(c1)CC[C@H]1N(C)C(=O)CC[C@]21C [Example 101, (+)-(4aR)-(10bR)-4,10b-dimethyl-8-(2-methylphenylthio)-1,2,3,4,-4a,5,6,10b-octahydrobenzo[f]quinolin-3-one] | 75 | 43 | 
CN1C(=O)CC[C@]2(C)c3ccc(Sc4cccc5ccccc45)cc3CC[C@@H]12 [Example 103, (+)-(4aR)-(10bR)-4,10b-dimethyl-8-(1-naphthylthio)-1,2,3,4, -4a,5,6,10b-octahydrobenzo[f]quinolin-3-one] | 81 | 58 | 
COc1ccc(Sc2ccc3c(c2)CC[C@H]2N(C)C(=O)CC[C@]32C)cc1 [Example 105, (+)-(4aR)-(10bR)-4,10b-dimethyl-8-(4-methoxyphenylthio)-1,2,3,4,-4a,5,6,10b-octahydrobenzo[f]quinolin-3-one] | 92 | 33 | 
CN1C(=O)CC[C@]2(C)c3ccc(Sc4cnc5ccccc5c4)cc3CC[C@@H]12 [Example 106, (4aR)-(10bR)-4,10b-dimethyl-8-(3-quinolinylthio)-1,2,3,4,4a,5,6,10b-octahydrobenzo[f]quinolin-3-one] | 73 | 39 | 
CN1C(=O)CC[C@]2(C)c3ccc(Sc4cccc(F)c4)cc3CC[C@@H]12 [Example 109, (+)-(4aR)-(10bR)-4,10b-dimethyl-8-(3-fluorophenylthio)-1,2,3,4,4a,5,6,10b-octahydrobenzo[f]quinolin-3-one] | 97 | 25 | 
CN1C(=O)CC[C@]2(C)c3ccc(Sc4cccc5cccnc45)cc3CC[C@@H]12 [Example 110, (4aR)-(10bR)-4,10b-dimethyl-8-(8-quinolinylthio)-1,2,3,4,4a,5,6,10b-octahydrobenzo[f]quinolin-3-one] | 97 | 73 | 

Second part, the molecule after the results:

inhibition at 0.3 µM [1] [%] | inhibition at 0.3 µM [2] [%] | percent inhibition of Type II AR [2] [%] | SMILES
76 | 29 |  | CN1C(=O)CC[C@]2(C)c3ccc(-c4cccc(C(F)(F)F)c4)cc3CC[C@@H]12 [Example 80, (+)-(4aR)-(10bR)-4-methyl-8-(3-trifluoromethylphenyl)-10b-methyl-1,2,3,4,4a,5,6,10b-octahydrobenzo[f]quinolin-3-one]
83 | 28 |  | CN1C(=O)CC[C@]2(C)c3ccc(-c4cc(C(F)(F)F)cc(C(F)(F)F)c4)cc3CC[C@@H]12 [Example 87, (+)-(4aR)-(10bR)-4-methyl-8-(3,5-his [trifluoromethyl]phenyl)-10b-methyl-1,2,3,4,4a,5,6,10b-octahydrobenzo[f]quinolin-3-one]
96 | 43 |  | CN1C(=O)CC[C@]2(C)c3ccc(-c4ccc(F)c(Cl)c4)cc3CC[C@@H]12 [Example 88, (+)-(4aR)-(10bR)-4-methyl-8-(3-chloro-4-fluorophenyl)-10b-methyl-1,2,3,4,4a,5,6,10b-octahydrobenzo[f]quinolin-3-one]
95 | 35 |  | CN1C(=O)CC[C@]2(C)c3ccc(Sc4ccc(Cl)cc4)cc3CC[C@@H]12 [Example 95, (+)-(4aR)-(10bR)-4,10b-dimethyl-8-(4-chlorophenylthio)-1,2,3,4,-4a,5,6,10b-octahydrobenzo[f]quinolin-3-one]
92 | 61 |  | Cc1cccc(Sc2ccc3c(c2)CC[C@H]2N(C)C(=O)CC[C@]32C)c1 [Example 102, (+)-(4aR)-(10bR)-4,10b-dimethyl-8-(3-methylphenylthio)-1,2,3,4,-4a,5,6,10b-octahydrobenzo[f]quinolin-3-one]
89 | 41 |  | COc1ccccc1Sc1ccc2c(c1)CC[C@H]1N(C)C(=O)CC[C@]21C [Example 104, (+)-(4aR)-(10bR)-4,10b-dimethyl-8-(2-methoxyphenylthio)-1,2,3,4,-4a,5,6,10b-octahydrobenzo[f]quinolin-3-one]
80 | 83 |  | CN1C(=O)CC[C@]2(C)c3ccc(Sc4ccc5ccccc5n4)cc3CC[C@@H]12 [Example 107, (+)-(4aR)-(10bR)-4,10b-dimethyl-8-(2-quinolinylthio)-1,2,3,4,-4a,5,6,10b-octahydrobenzo[f]quinolin-3-one]
100 | 29 |  | CN1C(=O)CC[C@]2(C)c3ccc(Sc4ccccc4F)cc3CC[C@@H]12 [Example 108, (+)-(4aR)-(10bR)-4,10b-dimethyl-8-(2-fluorophenylthio)-1,2,3,4,-4a,5,6,10b-octahydrobenzo[f]quinolin-3-one]
44 | 38 |  | CN1C(=O)CC[C@]2(C)c3ccc(Sc4ccccn4)cc3CC[C@@H]12 [Example 111, (+)-(4aR)-(10bR)-4,10b-dimethyl-8-(2-pyridinylthio)-1,2,3,4,-4a,5,6,10b-octahydrobenzo[f]quinolin-3-one]

— patent US5622962A, “5α-reductase inhibitors” (priority 1995, dated 1997)
